The source of these data is patent publication US5874481A, “Fluorochemical solutions for the delivery of lipophilic pharmaceutical agents” (priority 1995, dated 1999).

Values after ≈ are worked out from the molar mass of the structure shown. Read-outs that look alike come from different tables or passages of the source.

For data set [1] the following is noted: cited from earlier work.
Data set [2] can be described thus: Solubility in perfluorooctyl ethane (Example 6). As to conditions: organic solvent or mixture; saturated in n-C8F17C2H5; read-out: g/L in C8F17C2H5. It counts as physicochemical. How it is done:
A pharmaceutical fluorochemical solution was prepared as follows:
An aliquot of n-C8 F17 C2 H5 (2 mL; F-Tech, Inc.) was saturated with "Drug" (Sigma Chemical Co.).

Data set [3] is described as follows: Effect of fluorochemical lipophilicity on pharmaceutical solubility (Example 7). The data set is classed as physicochemical. As for the experimental part:
Pharmaceutical fluorochemical solutions were prepared as follows: […]

A short description of data set [4]: Solubility of prednisone in fluorocarbons (Example 5). It counts as physicochemical. To be noted: organic solvent or mixture, read-out: mg/L of prednisone in fluorochemical matrix. As for the experimental part:
A prednisone containing perfluorochemical solution was prepared as follows:
The column was a 25 cm amino column (Rainin), and the detection was carried out by a UV detector (Beckman System Gold) at the end of the column.

For data set [5] the following is noted: in vivo, cited from earlier work.
Where [6] appears, read: octanol/pH 7.4 isotonic phosphate buffer at 37° C.

Turning to `CCCCCCCCCCCC(=O)N1CCCCCC1` [^14 C-hexamethylene lauramide, hexamethylene lauramide], in data set [1] (octanol/water), the “Log Po/w” value is 7.3 and the “Octanol/water partition coefficient Po/w” value is given as 2.00 × 10^7.

As to `CCCCCC(=O)OCCOCn1cnc2c(=O)[nH]c(N)nc21` [hexanoyl acyclovir], in data set [1] (setting [6]), the “Log Po/w” value is given as 0.93.

As to `CN(C)CCCN1c2ccccc2CCc2ccc(Cl)cc21` [clomipramine], the “Octanol/water partition coefficient Po/w” value in data set [1] (octanol/water, pH 7.4) was 3.80 × 10^3.

In the case of `CCCCN1CCCCC1C(=O)Nc1c(C)cccc1C` (stereo not shown) [bupivacaine], the “Octanol/water partition coefficient Po/w” value in data set [1] (octanol/water) was 28.2.

Turning to `c1ccc2cc3ccccc3cc2c1` [Antracene], the “log Po/w” value in data set [1] (Example 6, source not stated) is on record as 4.473. The solubility in data set [2] was 0.09 g/L (≈ 0.505 mM).

As to `CCc1ccccc1O` [o-Ethylphenol], the solubility in data set [2] turned out to be 9.4 g/L (≈ 76.9 mM).

With `CCCCCCCCCCCCCCCc1cccc(O)c1` [m-Pentadecylphenol], the solubility in data set [3] (c6f13c2h5, organic solvent or mixture) is 700 µg/mL (≈ 2.3 mM); in data set [3] (c6f13c6h13, organic solvent or mixture), 4100 µg/mL (≈ 13.5 mM); in data set [3] (c6f13c8h17, organic solvent or mixture) it was 5600 µg/mL (≈ 18.4 mM); in data set [3] (c8f17c2h5, organic solvent or mixture) it was 400 µg/mL (≈ 1.31 mM); in data set [3] (c8f17c4h9, organic solvent or mixture), 600 µg/mL (≈ 1.97 mM); in data set [3] (c8f17c6h13, organic solvent or mixture) it was 1700 µg/mL (≈ 5.58 mM). For the same compound, the solubility in data set [2] was 0.4 g/L (≈ 1.31 mM). Moreover, the “log Po/w” value in data set [1] (octanol/water) was 9.53.

For `CCCCCCc1ccccc1` [Hexylbenzene], in data set [1] (octanol/water), the “log Po/w” value is on record as 5.52. In addition, the solubility in data set [2] was 67.1 g/L (≈ 413 mM).

For `c1ccc2cc3cc4ccccc4cc3cc2c1` [2,3 Benzanthracene], the “log Po/w” value in data set [1] (Example 6, source not stated) is 5.807. Also, in data set [2], the solubility was found to be 0.0003 g/L (≈ 0.00131 mM).

Turning to `CCCCC(=O)OCCOCn1cnc2c(=O)[nH]c(N)nc21` [valeryl acyclovir], in data set [1] (setting [6]), the “Log Po/w” value is 0.30.

On to `C[C@]12C=CC(=O)C=C1CC[C@@H]1[C@@H]2C(=O)C[C@@]2(C)[C@H]1CC[C@]2(O)C(=O)CO` [prednisone], for which the solubility was 1700 mg/L (≈ 4.74 mM) in data set [4] (1,4-dibromooctafluorobutane with 10% ethanol, in 1,4-Dibromooctafluorobutane with 10% Ethyl Alcohol); 3800 mg/L (≈ 10.6 mM) in data set [4] (1,4-dibromooctafluorobutane with 50% ethanol, in 1,4-Dibromooctafluorobutane with 50% Ethyl Alcohol); 27 mg/L (≈ 0.0753 mM) in data set [4] (n-c6f13c2h5 with 3% ethanol, in n-C6F13C2H5 with 3% Ethyl Alcohol); 80 mg/L (≈ 0.223 mM) in data set [4] (n-c6f13c6h13 with 3% ethanol, in n-C6F13C6H13 with 3% Ethyl Alcohol); below 1 mg/L in data set [4] (n-c8f17br with 3% ethanol, in n-C8F17Br with 3% Ethyl Alcohol); below 1 mg/L in data set [4] (in 1,4-Dibromooctafluorobutane).

In the case of `CC(CN1c2ccccc2Sc2ccccc21)N(C)C` (stereo not shown) [promethazine], in data set [1] (setting [6]), the “Log Po/w” value is recorded as 3.10 and the “Octanol/water partition coefficient Po/w” value is 1.27 × 10^3.

In the case of `c1ccc2ccccc2c1` [Naphthalene], the solubility in data set [3] (organic solvent or mixture, in C6F13C2H5, read-out: Naphthalene) was determined as 12000 µg/mL (≈ 93.6 mM); in data set [3] (organic solvent or mixture, in C6F13C6H13, read-out: Naphthalene), 30000 µg/mL (≈ 234 mM); in data set [3] (organic solvent or mixture, in C6F13C8H17, read-out: Naphthalene) it was 40000 µg/mL (≈ 312 mM); in data set [3] (organic solvent or mixture, in C8F17C2H5, read-out: Naphthalene), 8000 µg/mL (≈ 62.4 mM); in data set [3] (organic solvent or mixture, in C8F17C4H9, read-out: Naphthalene) it was 14000 µg/mL (≈ 109 mM); in data set [3] (organic solvent or mixture, in C8F17C6H13, read-out: Naphthalene), 23000 µg/mL (≈ 179 mM). Further, the solubility in data set [2] came to 8.1 g/L (≈ 63.2 mM). For the same compound, the “log Po/w” value in data set [1] (Example 6, source not stated) is given as 3.387.

For `CC/C(=C(/CC)c1ccc(O)cc1)c1ccc(O)cc1` [^3 H -diethylstilbesterol, diethylstilbesterol], the “Octanol/water partition coefficient Po/w” value in data set [1] (octanol/water) is given as 1.26 × 10^5.

For `Cc1ccc(O)cc1` [p-Cresol], in data set [1] (Example 6, source not stated), the “log Po/w” value is listed as 1.9. The solubility in data set [2] worked out at 3.9 g/L (≈ 36.1 mM).

For `CC(=O)[C@H]1CC[C@H]2[C@@H]3CCC4=CC(=O)CC[C@]4(C)[C@H]3CC[C@]12C` [^14 C-progesterone, progesterone], the “Octanol/water partition coefficient Po/w” value in data set [1] (octanol/water) is 7.9 × 10^3.

Consider `OC(CCN1CCCCC1)(c1ccccc1)C1CCCCC1` (stereo not shown) [trihexyphenidyl], for which, in data set [1] (octanol/water, pH 7.4), the “Log Po/w” value was 3.17 and the “Octanol/water partition coefficient Po/w” value was 1.47 × 10^3.

In the case of `c1ccc2cc3ccccc3cc2c1` [^14 C-anthracene, anthracene], in data set [1] (octanol/water), the “Octanol/water partition coefficient Po/w” value is given as 3.16 × 10^4.

For `CC(=O)O[C@H]1C(=O)[C@@]2(C)[C@H]([C@H](OC(=O)c3ccccc3)[C@]3(O)C[C@H](OC(=O)[C@H](O)[C@@H](NC(=O)c4ccccc4)c4ccccc4)C(C)=C1C3(C)C)[C@]1(OC(C)=O)CO[C@@H]1C[C@@H]2O` [paclitaxel], the systemic toxicities entry in data set [5] (iv) was “high systemic toxicities”. In data set [5], the “systemic toxicities associated with paclitaxel” value was “cardiac toxicity and neurotoxicity”.

`CCCCc1ccccc1` [Butylbenzene]: in data set [1] (Example 6, source not stated), the “log Po/w” value is on record as 4. Moreover, the solubility in data set [2] came to 116 g/L (≈ 862 mM).

Take `CCc1cc2c(s1)N(C)C(=O)CN=C2c1ccccc1Cl` [clotiazepam]: in data set [1] (setting [6]), the “Log Po/w” value is reported as 3.49 and the “Octanol/water partition coefficient Po/w” value is 3.06 × 10^3.

Consider `CC(C)=CCN1CCC2(C)c3cc(O)ccc3CC1C2C` (stereo not shown) [pentazocin], for which, in data set [1] (setting [6]), the “Log Po/w” value was 2.18 and the “Octanol/water partition coefficient Po/w” value is 150.
